In patent publication US20040038861A1, “Methods and compositions for normalizing lipid levels in mammalian tissues” (priority 2001, published 2004):

Legend:
soleus muscle [1] = experiment: Lipid metabolites (free fatty acid, glycerol, triglyceride; enzymatic analysis) in isolated soleus muscle from normally fed rats; type: cell-based, rat
soleus muscle [2] = experiment: Triglyceride and free fatty acid content (enzymatic) in isolated soleus muscle of rats fed high fat diets; type: cell-based, rat; conditions: 1 h
Description: (§1) High-fatted rats. Groups of male Wistar rats (n=21/diet) were ad libitum fed high-fat diets containing standard rat chow to which 40% (w/w) of lard, corn oil or olive oil had been added, from the time of weaning (age=21 d) until sacrifice at 50 d. Triacylglycerol from lard contains predominantly saturated fatty acids; that from corn oil […], see Table 4.
(§2) Soleus muscle tissue isolation and incuhation.Immersion and incubation media was Krebs-Henseleit buffer (KHB) containing 118.5 mM NaCl, 4.75 mM KCl, 1.18 mM MgSO4.7H2O and KH2PO4, 24.8 mM NaHCO3, 2.54 mM CaCl2 and 10 mM d-glucose. The medium was gassed continuously with 95% O2/5% CO2. […] Soleus muscles of both legs were excised keeping the tissue immersed in KHB; muscles were separated into two equal parts and transferred to the incubation flasks. At the completion of incubation the muscles were snap frozen in liquid nitrogen, and then trimmed of connective tissue and all visible fat. The muscle strips were stored at −80° C. until analysis.
(§3) Lipid extraction and chromatographic separation of fatty acids. Total lipids were extracted from muscle strips by a modified version of the method of Bligh and Dyer (Gorski et al., 1988, Mol & Cell Biochem 178:113-118; 1. Bligh et al., 1959, Can J Biochem Physiol 37: 911-917). Muscles were homogenised (Soniprep 150) in 0.4 ml of deionised water. Solvent volumes used herein were varied according to the water content of the muscle (ie muscle weight) as described (Bligh & Dyer, supra). 2 vols of methanol containing 0.005% butylated hydroxy toluene (BHT) and 1 vol chloroform were added to the muscle suspension. Homogenates were vortexed at maximum speed for 2 minutes and centrifuged at 2,500 g for 4 minutes. Supernatants were recovered and pellets re-extracted with 2 vol methanol, 1 vol chloroform and 0.8 vol 0.2 N HCl. Residues were vortexed for 2 min then centrifuged at 3,500 g for 3 min. After centrifugation the combined supernatants were diluted with 2v each of milli Q water and chloroform and the phases separated by centrifugation at 3,500 g for 4 minutes. The lower chloroform phase was recovered, neutralised by dropwise addition of 0.2 N methanolic NH4OH and evaporated down in a stream of N2. The samples were stored at −80° C. until required.
(§4) Aminopropyl phase (250 mg) was packed into 16 ml teflon columns with teflon frits placed at the top and bottom of the bonded phase. Columns were placed in a Vac Elut apparatus and washed twice with 2 ml portions of hexane (Prasad et al., 1988, J Chromato 428: 221-228; Kaluzny et al., 1985, J Lipid Res 26: 135-140). The dry lipid samples were taken up in two 0.150 ml portions of chloroform and applied to the column under atmospheric pressure. After adsorption the neutral lipids were eluted with 4 ml of chloroform-2-propanol (2:1, v/v) and the free fatty acids eluted with 4 ml of 2% acetic acid in diethyl ether. The solvent containing the free fatty acids was dried under a stream of N2.
Determination of tissue free fatty acids and triacylglycerol concentration by enzymatic analyses. Free fatty acids were separated from total lipid, evaporated under a stream of N2 and stored at −80° C. until analysis. Samples were dissolved in 50 μl of warm ethanol (35-40° C.), and 0.625 ml of a Triton X-100 (6% w/v) solution was added once the ethanol reached room temperature. The solution was stirred for 30 min, then made up to 0.825 ml with the Triton solution. Free fatty acids were quantified using a commercial method (Boehringer Mannheim) adapted for micro analyses (Cobas Mira, Roche Diagnostics), with palmitic acid standards. Triacyl glycerol levels were quantified in the total lipid fraction (Pointe Scientific) with a glycerol standard.
Total lipid was extracted and quantitated. Results are shown in FIGS. 18A NEFA and 18B triglyceride.

soleus muscle [3] = experiment: Individual free fatty acids by gas chromatography in soleus muscle of rats fed high fat diets; parameters: species or system rat; conditions: 1 hour, GC
Description: as §1, §2, §3, §4
Gas-liquid chromatographic analysis. Dry free fatty acid residues were processed for derivatisation of methyl esters by the boron trifluoride-methanol method (Prasad, supra). 1 ml of boron trifluoride in methanol (BF3) was added to each sample, the sample vials were heated at 70° C. for 5 minutes, shaken vigorously, and baked for a further 10 minutes. Once the samples reached room temperature 0.5 ml milli Q water was added, the sample vials shaken, 0.1 ml heptane was added and the sample shaken again. 0.05 ml of the top heptane layer was removed for GLC analysis. A Model HP5890 Plus Series 2 (Hewlett-Packard) gas chromatograph equipped with a DB-225 column was used to separate the methyl esters of the fatty acids and a Model HP 5890 GC with a Model HP 5973 MS (Hewlett-Packard) GC/MS used to confirm the identity of individual free fatty acids. […]

[4] = rats fed diet high in olive oil

Substance: Rat amylin
- soleus muscle free fatty acid content, agonist alone (soleus muscle [1]; 100 nM, 1 h, normal-fed rats (FIG. 3A, 3B)): 216 ± 26 nmol/g
- triacylglycerol (triglyceride) content (soleus muscle [1]; soleus, normally fed rats, 60-min, 100 nM amylin or CGRP-1, 4.4 μM norepinephrine, control 1.17±0.15, not significant): 1.7 ± 0.26 µmol/g
- intramuscular free fatty acid content (soleus muscle [1]; soleus, normally fed rats, 1 h, 100 nM amylin or CGRP-1, 4.4 μM norepinephrine, 23.7 nM insulin, control 78±21): 216 ± 22 nmol/g
- intramuscular glycerol content (soleus muscle [1]; soleus, normally fed rats, 1 h, 100 nM amylin or CGRP-1, 4.4 μM norepinephrine, control 0.07±0.007): 0.03 ± 0.004 nmol/g
- soleus muscle triglyceride content (soleus muscle [2]; diet with 40% added lard, 100 nM amylin or CGRP-1, 4.4 μM norepinephrine, control 1.14±0.16): 0.71 ± 0.07 µmol/g
- soleus muscle free fatty acid content (soleus muscle [2]; diet with 40% added lard, 100 nM amylin or CGRP-1, 4.4 μM norepinephrine, control 43±8): 102 ± 12 nmol/g
- soleus muscle triglyceride content (soleus muscle [2]; diet with 40% corn oil, 100 nM, control 0.89±0.06 μmol/g): 0.49±0.07 [mol/g
- soleus muscle free fatty acid content (soleus muscle [2]; diet with 40% corn oil, 100 nM, control 35±4): 75 ± 9 nmol/g
- soleus muscle triglyceride content (soleus muscle [2]; diet with 40% olive oil, 100 nM, control 0.83±0.1): 0.44 ± 0.4 µmol/g
- soleus muscle free fatty acid content (soleus muscle [2]; diet with 40% olive oil, 100 nM, control 15±3): 85 ± 12 nmol/g
- free fatty acid adrenic C22:4 (soleus muscle [3]; rats fed diet high in corn oil): 0.03 ± 0.003 nmol/g wwt
- free fatty acid arachidic C20:0 (soleus muscle [3]; rats fed diet high in corn oil): 0.04 ± 0.002 nmol/g wwt
- free fatty acid arachidonic C20:4 (soleus muscle [3]; rats fed diet high in corn oil): 0.04 ± 0.002 nmol/g wwt
- free fatty acid cervonic C22:6 (soleus muscle [3]; rats fed diet high in corn oil): 0.03 ± 0.002 nmol/g wwt
- free fatty acid linoleic C18:2 (soleus muscle [3]; rats fed diet high in corn oil): 0.18 ± 0.02 nmol/g wwt
- free fatty acid linolenic C18:3 (soleus muscle [3]; rats fed diet high in corn oil): 0.16 ± 0.02 nmol/g wwt
- free fatty acid margaric C17:0 (soleus muscle [3]; rats fed diet high in corn oil): 0.02 ± 0.0009 nmol/g wwt
- free fatty acid myristic C14:0 (soleus muscle [3]; rats fed diet high in corn oil): 0.04 ± 0.006 nmol/g wwt
- free fatty acid oleic C18:1 (soleus muscle [3]; rats fed diet high in corn oil): 0.13 ± 0.01 nmol/g wwt
- free fatty acid palmitic C16:0 (soleus muscle [3]; rats fed diet high in corn oil): 0.12 ± 0.01 nmol/g wwt
- free fatty acid palmitoleic (n-7) C16:1 (soleus muscle [3]; rats fed diet high in corn oil): 0.01 ± 0.0008 nmol/g wwt
- free fatty acid palmitoleic (n-9) C16:1 (soleus muscle [3]; rats fed diet high in corn oil): 0.19 ± 0.008 nmol/g wwt
- free fatty acid pentadecanoic C15:0 (soleus muscle [3]; rats fed diet high in corn oil): 0.05 ± 0.007 nmol/g wwt
- free fatty acid stearic C18:0 (soleus muscle [3]; rats fed diet high in corn oil): 0.14 ± 0.008 nmol/g wwt
- free fatty acid timnodonic C20:5 (soleus muscle [3]; rats fed diet high in corn oil): 0.05 ± 0.007 nmol/g wwt
- free fatty acid vaccenic C18:1 (soleus muscle [3]; rats fed diet high in corn oil): 0.02 ± 0.002 nmol/g wwt
- free fatty acid adrenic C22:4 (soleus muscle [3]; rats fed diet high in lard): 0.03 ± 0.005 nmol/g wwt
- free fatty acid arachidic C20:0 (soleus muscle [3]; rats fed diet high in lard): 0.06 ± 0.007 nmol/g wwt
- free fatty acid arachidonic C20:4 (soleus muscle [3]; rats fed diet high in lard): 0.01 ± 0.0005 nmol/g wwt
- free fatty acid cervonic C22:6 (soleus muscle [3]; rats fed diet high in lard): 0.02 ± 0.002 nmol/g wwt
- free fatty acid linoleic C18:2 (soleus muscle [3]; rats fed diet high in lard): 0.29 ± 0.004 nmol/g wwt
- free fatty acid margaric C17:0 (soleus muscle [3]; rats fed diet high in lard): 0.08 ± 0.01 nmol/g wwt
- free fatty acid myristic C14:0 (soleus muscle [3]; rats fed diet high in lard): 0.05 ± 0.01 nmol/g wwt
- free fatty acid oleic C18:1 (soleus muscle [3]; rats fed diet high in lard): 0.2 ± 0.01 nmol/g wwt
- free fatty acid palmitic C16:0 (soleus muscle [3]; rats fed diet high in lard): 0.24 ± 0.01 nmol/g wwt
- free fatty acid palmitoleic (n-7) C16:1 (soleus muscle [3]; rats fed diet high in lard): 0.02 ± 0.0009 nmol/g wwt
- free fatty acid palmitoleic (n-9) C16:1 (soleus muscle [3]; rats fed diet high in lard): 0.02 ± 0.003 nmol/g wwt
- free fatty acid pentadecanoic C15:0 (soleus muscle [3]; rats fed diet high in lard): 0.12 ± 0.03 nmol/g wwt
- free fatty acid stearic C18:0 (soleus muscle [3]; rats fed diet high in lard): 0.35 ± 0.04 nmol/g wwt
- free fatty acid timnodonic C20:5 (soleus muscle [3]; rats fed diet high in lard): 0.02 ± 0.002 nmol/g wwt
- free fatty acid vaccenic C18:1 (soleus muscle [3]; rats fed diet high in lard): 0.02 ± 0.002 nmol/g wwt
- free fatty acid adrenic C22:4 (soleus muscle [3]; [4]): 0.05 ± 0.008 nmol/g wwt
- free fatty acid arachidic C20:0 (soleus muscle [3]; [4]): 0.04 ± 0.005 nmol/g wwt
- free fatty acid arachidonic C20:4 (soleus muscle [3]; [4]): 0.03 ± 0.007 nmol/g wwt
- free fatty acid cervonic C22:6 (soleus muscle [3]; [4]): 0.08 ± 0.02 nmol/g wwt
- free fatty acid linoleic C18:2 (soleus muscle [3]; [4]): 0.02 ± 0.004 nmol/g wwt
- free fatty acid linolenic C18:3 (soleus muscle [3]; [4]): 0.01 ± 0.002 nmol/g wwt
- free fatty acid margaric C17:0 (soleus muscle [3]; [4]): 0.02 ± 0.003 nmol/g wwt
- free fatty acid myristic C14:0 (soleus muscle [3]; [4]): 0.01 ± 0.001 nmol/g wwt
- free fatty acid oleic C18:1 (soleus muscle [3]; [4]): 0.34 ± 0.04 nmol/g wwt
- free fatty acid palmitic C16:0 (soleus muscle [3]; [4]): 0.18 ± 0.01 nmol/g wwt
- free fatty acid palmitoleic (n-7) C16:1 (soleus muscle [3]; [4]): 0.02 ± 0.001 nmol/g wwt
- free fatty acid palmitoleic (n-9) C16:1 (soleus muscle [3]; [4]): 0.29 ± 0.03 nmol/g wwt
- free fatty acid pentadecanoic C15:0 (soleus muscle [3]; [4]): 0.04 ± 0.005 nmol/g wwt
- free fatty acid stearic C18:0 (soleus muscle [3]; [4]): 0.18 ± 0.02 nmol/g wwt
- free fatty acid timnodonic C20:5 (soleus muscle [3]; [4]): 0.02 ± 0.003 nmol/g wwt
- free fatty acid vaccenic C18:1 (soleus muscle [3]; [4]): 0.13 ± 0.02 nmol/g wwt
